Test results taken from patent US8063107B2, “Use of trans-pellitorin as flavor substance” (Symrise AG, priority 2002, dated 2011).
Entries after “also recorded” stand apart in the source; their conditions may differ. Where two headings read alike, the source gives them in different places.

How the values were obtained:
[1] = cited from earlier work
[2] = test system: group of 6 to 8 testers; assay: Tasting of trans-pellitorin in 11 wt. % sugar solution by a group of testers; assay type: in vivo; details: for sensory impression on tasting: approximately 5 ml swallowed
Method: The trans-pellitorin was dissolved in ethanol and the ethanolic solution was then diluted with an 11 wt. % sugar solution (final concentration: c). For tasting, respectively approximately 5 ml of the sugar solution was respectively swallowed.

Row | SMILES | sensory impression ([1]; Lebensm.-Wiss. U.-Technol. 1992, 25, 417-421) | sensory impression on tasting ([2]; c=10 ppm in 11 wt. % sugar solution) | sensory impression on tasting ([2]; c=20 ppm in 11 wt. % sugar solution) | concentration in the final product at which a saliva inducing effect only is observed, no additional sensory impressions ([2]; final product, e.g. finished preparation) | sensory impression in taste research ([2]; taste research, general statement) | sensory impression ([1]; J. Agric. Food Chem. 1981, 29, 115, Fitoterapia 2001, 72, 197) | sensory impression on tasting in the pure state ([1]; pure state, J. Am. Chem. Soc. 1953, 75, 2584-2586)
1 | C/C=C/C=C\CC/C=C/C(=O)NCC(C)C [spilanthol, 2E,6Z,8E-decatrienoic acid-N-isobutylamide, reference compound] | strongly salivation inducing and tingly or prickly; also recorded: spicy-hot and strongly numbing as well as an astringent |  |  |  |  |  | 
2 | CCCCC/C=C/C=C/C(=O)NCC(C)C [trans-pellitorin, 2E,4E-decadienoic acid-N-isobutylamide] |  | salivation inducing, slightly prickly, not spicy hot | salivation inducing, slightly numbing, slightly fatty, weakly fruity, prickly, persistent, not spicy hot | below 20 ppm | pleasant saliva-inducing and slightly prickly sensory impression, with relatively prolonged effect | primarily numbing | besides an elevated saliva flow, a strong burning effect on the tongue
